The NIST ThermoML archive (doi:10.1016/j.fluid.2019.01.025)

Assay: xn = mol fraction of the nth substance listed
Settings: for viscosity / mass density: 91.2 kPa, Liquid; for viscosity: Concentric cylinders viscometry; for mass density: Vibrating tube method; for surface tension liquid-gas: Ring tensiometer

C[C@H](O)C(=O)O [(S)-2-hydroxypropanoic acid] + O=C[C@H](O)[C@@H](O)[C@H](O)[C@H](O)CO
x1 = 0.833
Settings | mass density [kg/m3] | surface tension liquid-gas [mN/m] | viscosity [mPa·s]
293 K | 1280 | – | 335
298 K | 1270 | 37.42 | –
303 K | 1270 | – | 161
308 K | 1270 | – | –
313 K | 1260 | – | 79
318 K | 1260 | – | –
323 K | 1250 | – | 34
333 K | – | – | 18
343 K | – | – | 16
353 K | – | – | 13

C[C@H](O)C(=O)O [(S)-2-hydroxypropanoic acid] + C[N+](C)(C)CCO.[Cl-]
x2 = 0.5
Settings | mass density [kg/m3] | surface tension liquid-gas [mN/m] | viscosity [mPa·s]
293 K | 1150 | – | 309
298 K | 1150 | 42.87 | –
303 K | 1150 | – | 151
308 K | 1140 | – | –
313 K | 1140 | – | 101
318 K | 1140 | – | –
323 K | 1130 | – | 59
333 K | – | – | 35
343 K | – | – | 34
353 K | – | – | 25
